≈ marks a conversion by molar mass, not a printed value.
Assays:
Assay in all cases: Agar dilution MIC
[1] = tested on: Actinomyces odontolyticus; format: cell-based; conditions: Schaalia odontolytica, 10 isolates
[2] = tested on: Actinomyces israelii; format: cell-based; conditions: 6 isolates
[3] = tested on: Anaerobiospirillum thomasii; format: cell-based; conditions: Anaerobiospirillum thomasii, 13 isolates
[4] = tested on: Anaerobiospirillum succiniciproducens; format: cell-based; conditions: 3 isolates
[5] = tested on: Bacteroides gracilis; format: cell-based, Bacteroides gracilis (Campylobacter gracilis); conditions: 11 isolates
[6] = tested on: Bacteroides tectum; format: cell-based; conditions: 22 isolates
[7] = tested on: Bacteroides ureolyticus; format: cell-based; conditions: 17 isolates
[8] = tested on: Bilophila wadsworthia; format: cell-based; conditions: 16 isolates, agar supplemented with pyruvate
[9] = tested on: Clostridium clostridioforme; format: cell-based; conditions: Clostridium, 11 isolates
[10] = tested on: Clostridium dfficile; format: cell-based, Clostridium difficile; conditions: Clostridium
[11] = tested on: Clostridium inocuum; format: cell-based, Clostridium innocuum; conditions: Clostridium, 11 isolates
[12] = tested on: Clostridium ramosum; format: cell-based; conditions: Thomasclavelia ramosa, 10 isolates
[13] = tested on: Fusobacterium spp group 1; format: cell-based; conditions: 19 isolates
[14] = tested on: Fusobacterium spp. group 2; format: cell-based, Fusobacterium mortiferum, necrogenes, ulcerans; conditions: Fusobacterium, 12 isolates
[15] = tested on: Fusobacterium russii; format: cell-based
[16] = tested on: Fusobacterium varium; format: cell-based; conditions: Fusobacterium varium, 17 isolates
[17] = tested on: Peptostreptococcus asaccharolyticus; format: cell-based; conditions: Peptoniphilus asaccharolyticus, 11 isolates
[18] = tested on: Peptostreptococcus magnus; format: cell-based; conditions: Finegoldia magna, 13 isolates
[19] = tested on: Peptostreptococcus micros; format: cell-based; conditions: 12 isolates
[20] = tested on: Peptostreptococcus prevotii; format: cell-based; conditions: Anaerococcus prevotii, read-out: Minimal Inhibitory Concentration 50% (MIC50); 9 isolates
[21] = tested on: Porphyromonas asaccharolyticus; format: cell-based, Porphyromonas asaccharolytica; conditions: Porphyromonas, 11 isolates
[22] = tested on: Porphyromonas canoris; format: cell-based; conditions: Porphyromonas canoris, 10 isolates
[23] = tested on: Porphyromonas gingivalis; format: cell-based; conditions: Porphyromonas gingivalis, 13 isolates
[24] = tested on: Porphyromonas macaccae; format: cell-based; conditions: Porphyromonas, 13 isolates
[25] = tested on: Porphyromonas spp.; format: cell-based, Porphyromonas cangingivalis, cansulci, circumdentaria, levii; conditions: Porphyromonas, 11 isolates
[26] = tested on: Prevotella bivia; format: cell-based; conditions: Prevotella bivia, 21 isolates
[27] = tested on: Prevotella buccae-oris group; format: cell-based; conditions: Prevotella, 22 isolates
[28] = tested on: Prevotella heparinolytica; format: cell-based; conditions: 16 isolates
[29] = tested on: Prevotella intermedia; format: cell-based; conditions: 11 isolates
[30] = tested on: Prevotella melaninogenica; format: cell-based; conditions: Prevotella melaninogenica, 12 isolates
[31] = tested on: Prevotella denticola/loeschii group; format: cell-based; conditions: 6 isolates
[32] = tested on: Veillonella spp.; format: cell-based; conditions: Veillonella, 24 isolates
[33] = read-out: Minimal Inhibitory Concentration 90% (MIC90)
[34] = read-out: Minimal Inhibitory Concentration 50% (MIC50)

## CC[C@H]1OC(=O)[C@H](C)[C@@H](O[C@H]2C[C@@](C)(OC)[C@@H](O)[C@H](C)O2)[C@H](C)[C@@H](O[C@@H]2O[C@H](C)C[C@H](N(C)C)[C@H]2O)[C@](C)(O)C[C@@H](C)CN(C)[C@H](C)[C@@H](O)[C@]1(C)O [Azithromycin]
[1]; [33]
  MIC90: 0.06 µg/mL (≈ 0.0801 µM)
[1]; [34]
  MIC50: 0.03 µg/mL (≈ 0.0401 µM)
[2]
  Minimal Inhibitory Concentration Range: 0.06 µg/mL
[2]; Actinomyces israelii, read-out: Minimal Inhibitory Concentration 50% (MIC50)
  MIC50: 0.06 µg/mL (≈ 0.0801 µM)
[3]; [34]
  MIC50: 0.5 µg/mL (≈ 0.668 µM)
[3]; [33]
  MIC90: 1 µg/mL (≈ 1.34 µM)
[4]
  Minimal Inhibitory Concentration Range: 0.5 to 1 µg/mL
[4]; Anaerobiospirillum succiniciproducens, read-out: Minimal Inhibitory Concentration 50% (MIC50)
  MIC50: 0.5 µg/mL (≈ 0.668 µM)
[5]
  Minimal Inhibitory Concentration Range: 0.06 to 0.5 µg/mL
[5]; Campylobacter gracilis, read-out: Minimal Inhibitory Concentration 90% (MIC90)
  MIC90: 0.5 µg/mL (≈ 0.668 µM)
[5]; Campylobacter gracilis, read-out: Minimal Inhibitory Concentration 50% (MIC50)
  MIC50: 0.125 µg/mL (≈ 0.167 µM)
[6]
  Minimal Inhibitory Concentration Range: 0.5 to 2 µg/mL
[6]; Bacteroides pyogenes, read-out: Minimal Inhibitory Concentration 90% (MIC90)
  MIC90: 2 µg/mL (≈ 2.67 µM)
[6]; Bacteroides pyogenes, read-out: Minimal Inhibitory Concentration 50% (MIC50)
  MIC50: 1 µg/mL (≈ 1.34 µM)
[7]
  Minimal Inhibitory Concentration Range: 0.06 to 0.25 µg/mL
[7]; Campylobacter ureolyticus, read-out: Minimal Inhibitory Concentration 90% (MIC90)
  MIC90: 0.25 µg/mL (≈ 0.334 µM)
[7]; Campylobacter ureolyticus, read-out: Minimal Inhibitory Concentration 50% (MIC50)
  MIC50: 0.06 µg/mL (≈ 0.0801 µM)
[8]
  Minimal Inhibitory Concentration Range: 1 to 16 µg/mL
[8]; Bilophila wadsworthia, read-out: Minimal Inhibitory Concentration 90% (MIC90)
  MIC90: 16 µg/mL (≈ 21.4 µM)
[8]; Bilophila wadsworthia, read-out: Minimal Inhibitory Concentration 50% (MIC50)
  MIC50: 4 µg/mL (≈ 5.34 µM)
[9]; [33]
  MIC90: > 32 µg/mL
[9]; [34]
  MIC50: 16 µg/mL (≈ 21.4 µM)
[10]; [34]
  MIC50: 2 µg/mL (≈ 2.67 µM)
[10]; read-out: Minimal Inhibitory Concentration 90% (MIC90), 14 isolates
  MIC90: > 32 µg/mL
[11]; [33]
  MIC90: > 32 µg/mL
[11]; [34]
  MIC50: > 32 µg/mL
[12]; [34]
  MIC50: 0.25 µg/mL (≈ 0.334 µM)
[12]; [33]
  MIC90: > 32 µg/mL
[13]
  Minimal Inhibitory Concentration Range: 0.06 to 32 µg/mL
[13]; Fusobacterium, GROUP1, read-out: Minimal Inhibitory Concentration 50% (MIC50)
  MIC50: 1 µg/mL (≈ 1.34 µM)
[13]; Fusobacterium, GROUP1, read-out: Minimal Inhibitory Concentration 90% (MIC90)
  MIC90: 8 µg/mL (≈ 10.7 µM)
[14]; [34]
  MIC50: 16 µg/mL (≈ 21.4 µM)
[14]; [33]
  MIC90: 32 µg/mL (≈ 42.7 µM)
[15]
  Minimal Inhibitory Concentration Range: 0.03 to 32 µg/mL
[15]; Fusobacterium russii, read-out: Minimal Inhibitory Concentration 50% (MIC50)
  MIC50: 0.25 µg/mL (≈ 0.334 µM)
[15]; Fusobacterium russii, read-out: Minimal Inhibitory Concentration 90% (MIC90)
  MIC90: 32 µg/mL (≈ 42.7 µM)
[16]; [34]
  MIC50: 32 µg/mL (≈ 42.7 µM)
[16]; [33]
  MIC90: > 32 µg/mL
[17]; [34]
  MIC50: 4 µg/mL (≈ 5.34 µM)
[17]; [33]
  MIC90: > 32 µg/mL
[18]; [34]
  MIC50: 4 µg/mL (≈ 5.34 µM)
[18]; [33]
  MIC90: > 32 µg/mL
[19]
  Minimal Inhibitory Concentration Range: 0.5 to 1 µg/mL
[19]; Parvimonas micra, read-out: Minimal Inhibitory Concentration 50% (MIC50)
  MIC50: 0.5 µg/mL (≈ 0.668 µM)
[19]; Parvimonas micra, read-out: Minimal Inhibitory Concentration 90% (MIC90)
  MIC90: 1 µg/mL (≈ 1.34 µM)
[20]
  MIC50: 32 µg/mL (≈ 42.7 µM)
[21]; [34]
  MIC50: 0.25 µg/mL (≈ 0.334 µM)
[21]; [33]
  MIC90: > 32 µg/mL
[22]; [34]
  MIC50: 0.25 µg/mL (≈ 0.334 µM)
[22]; [33]
  MIC90: 0.25 µg/mL (≈ 0.334 µM)
[23]; [34]
  MIC50: 0.25 µg/mL (≈ 0.334 µM)
[23]; [33]
  MIC90: 0.5 µg/mL (≈ 0.668 µM)
[24]; [34]
  MIC50: 0.5 µg/mL (≈ 0.668 µM)
[24]; [33]
  MIC90: 0.5 µg/mL (≈ 0.668 µM)
[25]; [34]
  MIC50: 0.25 µg/mL (≈ 0.334 µM)
[25]; [33]
  MIC90: 0.5 µg/mL (≈ 0.668 µM)
[26]; [33]
  MIC90: 1 µg/mL (≈ 1.34 µM)
[26]; [34]
  MIC50: 0.5 µg/mL (≈ 0.668 µM)
[27]; [33]
  MIC90: 1 µg/mL (≈ 1.34 µM)
[27]; [34]
  MIC50: 0.5 µg/mL (≈ 0.668 µM)
[28]
  Minimal Inhibitory Concentration Range: 0.5 to 1 µg/mL
[28]; Prevotella heparinolytica, read-out: Minimal Inhibitory Concentration 90% (MIC90)
  MIC90: 1 µg/mL (≈ 1.34 µM)
[28]; Prevotella heparinolytica, read-out: Minimal Inhibitory Concentration 50% (MIC50)
  MIC50: 0.5 µg/mL (≈ 0.668 µM)
[29]
  Minimal Inhibitory Concentration Range: 0.03 to 1 µg/mL
[29]; Prevotella intermedia, read-out: Minimal Inhibitory Concentration 90% (MIC90)
  MIC90: 0.5 µg/mL (≈ 0.668 µM)
[29]; Prevotella intermedia, read-out: Minimal Inhibitory Concentration 50% (MIC50)
  MIC50: 0.125 µg/mL (≈ 0.167 µM)
[30]; [33]
  MIC90: 32 µg/mL (≈ 42.7 µM)
[30]; [34]
  MIC50: 0.25 µg/mL (≈ 0.334 µM)
[31]
  Minimal Inhibitory Concentration Range: 0.06 to 16 µg/mL
[31]; Prevotella denticola, read-out: Minimal Inhibitory Concentration 50% (MIC50)
  MIC50: 0.5 µg/mL (≈ 0.668 µM)
[32]; [33]
  MIC90: > 32 µg/mL
[32]; [34]
  MIC50: 4 µg/mL (≈ 5.34 µM)

Reference: patent publication US6455540B1, “Methods of use of quinolone compounds against anaerobic pathogenic bacteria” (priority 1999, dated 2002)
